One data set addresses T1, HERG (Homo sapiens, UniProt Q12809).
T1 construct: expressed in transfected cells; host or cells: HEK cells, transient transfection, vector pCDNA3
Put plainly: Patch-clamp inhibition of cloned ion channel current in transfected HEK cells: HERG. The format is cell-based. The conditions noted are these: whole-cell patch clamp. How it is done: (§1) The relevant cloned ion channels (e.g. cardiac hH1, Kv1.4, Kv1.5, Kv4.2, Kv2.1, HERG etc.) are studied by transient transfection into HEK cells using the mammalian expression vector pCDNA3. Transfections for each channel type are carried out separately to allow individual study of the ion channel of interest. Cells expressing channel protein are detected by cotransfecting cells with the vector pHook-1 (Invitrogen, San Diego, Calif., USA). […] Equal concentrations of individual channel and pHook DNA are incubated with 10× concentration of lipofectAce in Modified Eagle's Medium (MEM, Canadian Life Technologies) and incubated with parent HEK cells plated on 25 mm culture dishes. After 3–4 hours the solution is replaced with a standard culture medium plus 20% fetal bovine serum and 1% antimycotic. Transfected cells are maintained at 37C in an air/5% CO2 incubator in 25 mm Petri dishes plated on glass coverslips for 24–48 hours to allow channel expression to occur. 20 min prior to experiments, cells are treated with beads coated with phOX. After 15 min, excess beads are […] off with cell culture medium and cells which had beads stuck to them are used for electrophysiological tests.
(§2) For whole-cell recording the control pipette filling solution contained (in mM): KCl, 130; EGTA, 5; MgCl2, 1; HEPES, 10; Na2ATP, 4; GTP, 0.1; and is adjusted to pH 7.2 with KOH. The control bath solution contained (in mM): NaCl, 135; KCI, 5; sodium acetate, 2.8; MgCl2, 1; HEPES, 10; CaCl2, 1; and is adjusted to pH 7.4 with NaOH. The test ion channel modulating compound is dissolved to 10 mM stock solutions in water and used at concentrations between 0.5 and 100 μM.
(§3) Coverslips containing cells are removed from the incubator before experiments and placed in a superfusion chamber (volume 250 μl) containing the control bath solution at 22C to 23C. All recordings are made via the variations of the patch-clamp technique, using an Axopatch 200A amplifier (Axon Instruments, CA). Patch electrodes are pulled from thin-walled borosilicate glass (World Precision Instruments; FL) on a horizontal micropipette puller, fire-polished, and filled with appropriate solutions. Electrodes had resistances of […] when filled with control filling solution. Analog capacity compensation is used in all whole cell measurements. In some experiments, leak subtraction is applied to data. Membrane potentials have not been corrected for any junctional potentials that arose between the pipette and bath solution. Data are filtered at 5 to 10 kHz before digitization and stored on a microcomputer for later analysis using the pClamp6 software (Axon Instruments, Foster City, Calif.). Due to the high level of expression of channel cDNA's in HEK cells, there is no need for signal averaging. The average cell capacitance is quite small, and the absence of ionic current at negative membrane potentials allowed faithful leak subtraction of data.
(§4) The concentration-response curves for changes in peak and steady-state current produced by the test compound are computer-fitted to the Hill equation: f=1−1/[1+([…])^n] [1]
(§5) where f is the fractional current (f=Idrug/Icontrol) at drug concentration [D]; IC50 is the concentration producing half-maximal inhibition and n is the Hill coefficient.
(§6) Compounds of the present invention may be evaluated by this method. […] Block is determined from the decrease in peak hH1 Na^+ current, or in steady-state Kv1.5 and integrated Kv4.2 current in the presence of drug. To record Na^+ current, cells are depolarized from the holding potential of −100 mV to a voltage of −30 mV for 10 ms to fully open and inactivate the channel. To record Kv1.5 and Kv4.2 current, cells are depolarized from the holding potential of −80 mV to a voltage of +60 mV for 200 ms to fully open the channel. Currents are recorded in the steady-state at a range of drug concentrations during stimulation every 4 s. […]

The next data set concerns the target T2, hH1 Na+ current (Homo sapiens, UniProt Q14524).
T2 construct: expressed in transfected cells; host or cells: HEK cells, transient transfection, vector pCDNA3
Put plainly: Patch-clamp inhibition of cloned ion channel current in transfected HEK cells: Na. The conditions noted are these: peak hH1 Na+ current, -100 mV to -30 mV. The class given is cell-based. How it is done:
as §1, §2, §3, §4, §5, §6
On the technique in general: The patch-clamp technique gives a direct electrical read-out from membranes.

Another data set has as its target T3, Kv4.2 (Homo sapiens, UniProt Q9NZV8).
T3 construct: expressed in transfected cells; host or cells: HEK cells, transient transfection, vector pCDNA3
T3 sequence (Q9NZV8 1-630): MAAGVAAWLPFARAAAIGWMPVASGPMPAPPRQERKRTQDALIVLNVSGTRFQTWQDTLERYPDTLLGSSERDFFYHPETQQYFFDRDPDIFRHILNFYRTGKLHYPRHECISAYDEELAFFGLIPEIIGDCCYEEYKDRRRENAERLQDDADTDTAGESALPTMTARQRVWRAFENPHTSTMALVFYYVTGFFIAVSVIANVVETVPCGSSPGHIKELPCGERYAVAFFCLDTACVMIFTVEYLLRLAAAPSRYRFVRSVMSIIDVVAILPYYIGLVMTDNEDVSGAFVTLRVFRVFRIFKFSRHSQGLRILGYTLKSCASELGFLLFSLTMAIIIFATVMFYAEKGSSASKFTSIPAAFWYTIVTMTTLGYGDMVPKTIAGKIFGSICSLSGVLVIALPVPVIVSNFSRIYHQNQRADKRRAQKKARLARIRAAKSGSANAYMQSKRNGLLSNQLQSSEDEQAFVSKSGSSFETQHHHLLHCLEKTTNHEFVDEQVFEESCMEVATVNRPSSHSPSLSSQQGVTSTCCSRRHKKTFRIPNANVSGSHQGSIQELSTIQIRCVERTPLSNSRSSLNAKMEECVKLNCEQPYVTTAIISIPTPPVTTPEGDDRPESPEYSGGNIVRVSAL
Put plainly: Patch-clamp inhibition of cloned ion channel current in transfected HEK cells: Kv4.2. The class given is cell-based. The conditions noted are these: integrated current, -80 mV to +60 mV. How it is done:
as §1, §2, §3, §4, §5, §6

The target of the next data set is T4, Kv1.5 (Homo sapiens, UniProt P22460).
T4 construct: expressed in transfected cells; host or cells: HEK cells, transient transfection, vector pCDNA3
T4 sequence (P22460 whole entry): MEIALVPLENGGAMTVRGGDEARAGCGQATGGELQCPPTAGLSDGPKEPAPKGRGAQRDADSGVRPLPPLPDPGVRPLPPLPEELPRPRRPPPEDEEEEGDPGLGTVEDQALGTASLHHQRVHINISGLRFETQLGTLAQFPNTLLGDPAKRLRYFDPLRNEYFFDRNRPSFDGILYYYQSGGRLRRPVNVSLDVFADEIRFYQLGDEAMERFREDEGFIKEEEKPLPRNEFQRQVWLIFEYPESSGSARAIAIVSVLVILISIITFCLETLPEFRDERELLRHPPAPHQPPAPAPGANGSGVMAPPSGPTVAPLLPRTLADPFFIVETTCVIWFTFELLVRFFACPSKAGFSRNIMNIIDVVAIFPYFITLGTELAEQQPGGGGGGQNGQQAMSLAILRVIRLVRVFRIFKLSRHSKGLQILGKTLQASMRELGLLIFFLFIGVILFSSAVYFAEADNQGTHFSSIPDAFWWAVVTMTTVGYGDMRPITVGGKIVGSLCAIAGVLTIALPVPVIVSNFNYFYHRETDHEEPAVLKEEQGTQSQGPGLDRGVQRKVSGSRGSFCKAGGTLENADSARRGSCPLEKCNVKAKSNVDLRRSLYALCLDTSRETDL
Put plainly: Patch-clamp inhibition of cloned ion channel current in transfected HEK cells: Kv1.5. The class given is cell-based. The note with it: steady-state current, -80 mV to +60 mV. On the procedure: as §1, §2, §3, §4, §5, §6

The subject of another data set is Sprague Dawley rats. Put plainly: Cardiovascular and behavioral effects: ECG changes during i.v. infusion in conscious rats. The format is in vivo, rat. On the procedure: Preparative surgery is performed in Sprague Dawley rats weighing 200–300 gm and anaesthetized with 65 mg/kg (i.p.) pentobarbital. The femoral artery and vein are cannulated using polyethylene (PE)-10 tubing. Prior to surgery, this PE-10 tubing had been annealed to a wider gauge (PE-50) tubing for externalization. The cannulated PE-10/PE-50 tubing is passed through a trocar and exteriorised together with three (lead II) limb ECG leads (see below). The trocar is threaded under the skin of the back and out through a small incision at the mid-scapular region. A ground ECG electrode is inserted subcutaneously using a 20 gauge needle with the lead wire threaded through it. To place the other ECG electrodes, a small incision is made in the anterior chest region over the heart and ECG leads are inserted into the subcutaneous muscle layer in the region of the heart using a 20 guage needle. Other ECG leads are inserted into the subcutaneous muscle layer in the region near the base of the neck and shoulder (right side). The animal is returned to a clean recovery-cage with free access to food and water. The treatment and observational period for each animal commenced after a 24-hour recovery period.
A 15 min observational period is recorded followed by the intravenous infusion regime of the test compound at an initial dose of 2.0 μmol/kg/min (at 1 ml/hr). This rate is doubled every 5 minutes until one of the following effects is observed:
Blood pressure (BP), heart rate (HR) and ECG variables are continuously recorded while behavioral responses are also monitored and the total accumulative drug dose and drug infusion rate at which the response (such as convulsion, piloerection, ataxia, restlessness, compulsive chewing, lip-smacking, wet dog shake etc.) occurred are recorded.
Electrocardiograph (ECG) parameters: PR, QRS, QT1 (peak of T-wave), QT2 (midpoint of T-wave deflection) and hemodynamic parameters: BP and HR are analyzed using the automated analysis function in LabView (National Instruments) with a customized autoanalysis software (Nortran Pharmaceuticals). The infused dose producing 25% from control (D25) for all recorded ECG variables is determined.
Table 2 describes the results of the tests as D25 (micromol/kg) which are the doses required to produce a 25% increase in the ECG parameter measured (ne=not estimated). The increases in P-R interval and QRS interval indicate cardiac sodium channel blockade while the increase in Q-T interval indicates cardiac potassium channel blockade.

The source of these data is US7105534B2, “Imidazo[1,2-α]pyridine ether compounds as ion channel modulators” (Cardiome Pharma Corp., priority 2000, dated 2006).

pIC50: −log10 of the molar value. Where a name gives a salt, the structure may show the parent alone.

One may read the pIC50 as the negative decadic logarithm of the IC50, by convention in mol/L. A high value points to a small IC50.

T1 sequence (Q12809 whole entry): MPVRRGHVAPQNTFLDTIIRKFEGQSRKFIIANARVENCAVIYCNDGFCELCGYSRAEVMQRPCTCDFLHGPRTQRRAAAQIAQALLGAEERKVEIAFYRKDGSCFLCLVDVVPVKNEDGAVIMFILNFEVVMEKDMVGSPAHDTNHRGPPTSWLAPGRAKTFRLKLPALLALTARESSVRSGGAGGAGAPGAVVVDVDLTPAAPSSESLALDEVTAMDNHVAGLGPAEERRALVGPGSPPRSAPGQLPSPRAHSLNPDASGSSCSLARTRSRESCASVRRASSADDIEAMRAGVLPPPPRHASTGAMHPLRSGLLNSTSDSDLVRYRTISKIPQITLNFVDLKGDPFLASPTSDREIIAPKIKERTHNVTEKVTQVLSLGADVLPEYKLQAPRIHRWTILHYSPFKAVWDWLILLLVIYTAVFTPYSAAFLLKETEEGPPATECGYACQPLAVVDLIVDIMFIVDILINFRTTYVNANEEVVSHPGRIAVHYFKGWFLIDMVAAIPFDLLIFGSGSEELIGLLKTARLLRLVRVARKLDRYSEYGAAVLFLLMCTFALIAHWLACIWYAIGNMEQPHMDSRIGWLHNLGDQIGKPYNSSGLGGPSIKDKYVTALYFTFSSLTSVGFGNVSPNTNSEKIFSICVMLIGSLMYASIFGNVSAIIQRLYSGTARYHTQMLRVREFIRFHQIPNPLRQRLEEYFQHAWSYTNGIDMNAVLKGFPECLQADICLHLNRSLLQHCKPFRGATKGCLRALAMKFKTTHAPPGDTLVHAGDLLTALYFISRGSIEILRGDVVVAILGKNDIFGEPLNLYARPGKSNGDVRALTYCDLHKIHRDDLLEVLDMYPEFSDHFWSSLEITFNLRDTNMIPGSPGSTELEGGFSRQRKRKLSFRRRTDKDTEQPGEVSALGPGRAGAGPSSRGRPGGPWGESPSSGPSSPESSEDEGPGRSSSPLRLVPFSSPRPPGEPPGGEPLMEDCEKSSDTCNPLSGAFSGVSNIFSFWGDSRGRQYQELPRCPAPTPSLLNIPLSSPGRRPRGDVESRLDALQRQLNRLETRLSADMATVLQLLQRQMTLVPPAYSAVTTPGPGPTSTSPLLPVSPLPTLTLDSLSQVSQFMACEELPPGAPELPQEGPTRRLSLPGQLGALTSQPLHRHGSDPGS
T2 sequence (Q14524 whole entry): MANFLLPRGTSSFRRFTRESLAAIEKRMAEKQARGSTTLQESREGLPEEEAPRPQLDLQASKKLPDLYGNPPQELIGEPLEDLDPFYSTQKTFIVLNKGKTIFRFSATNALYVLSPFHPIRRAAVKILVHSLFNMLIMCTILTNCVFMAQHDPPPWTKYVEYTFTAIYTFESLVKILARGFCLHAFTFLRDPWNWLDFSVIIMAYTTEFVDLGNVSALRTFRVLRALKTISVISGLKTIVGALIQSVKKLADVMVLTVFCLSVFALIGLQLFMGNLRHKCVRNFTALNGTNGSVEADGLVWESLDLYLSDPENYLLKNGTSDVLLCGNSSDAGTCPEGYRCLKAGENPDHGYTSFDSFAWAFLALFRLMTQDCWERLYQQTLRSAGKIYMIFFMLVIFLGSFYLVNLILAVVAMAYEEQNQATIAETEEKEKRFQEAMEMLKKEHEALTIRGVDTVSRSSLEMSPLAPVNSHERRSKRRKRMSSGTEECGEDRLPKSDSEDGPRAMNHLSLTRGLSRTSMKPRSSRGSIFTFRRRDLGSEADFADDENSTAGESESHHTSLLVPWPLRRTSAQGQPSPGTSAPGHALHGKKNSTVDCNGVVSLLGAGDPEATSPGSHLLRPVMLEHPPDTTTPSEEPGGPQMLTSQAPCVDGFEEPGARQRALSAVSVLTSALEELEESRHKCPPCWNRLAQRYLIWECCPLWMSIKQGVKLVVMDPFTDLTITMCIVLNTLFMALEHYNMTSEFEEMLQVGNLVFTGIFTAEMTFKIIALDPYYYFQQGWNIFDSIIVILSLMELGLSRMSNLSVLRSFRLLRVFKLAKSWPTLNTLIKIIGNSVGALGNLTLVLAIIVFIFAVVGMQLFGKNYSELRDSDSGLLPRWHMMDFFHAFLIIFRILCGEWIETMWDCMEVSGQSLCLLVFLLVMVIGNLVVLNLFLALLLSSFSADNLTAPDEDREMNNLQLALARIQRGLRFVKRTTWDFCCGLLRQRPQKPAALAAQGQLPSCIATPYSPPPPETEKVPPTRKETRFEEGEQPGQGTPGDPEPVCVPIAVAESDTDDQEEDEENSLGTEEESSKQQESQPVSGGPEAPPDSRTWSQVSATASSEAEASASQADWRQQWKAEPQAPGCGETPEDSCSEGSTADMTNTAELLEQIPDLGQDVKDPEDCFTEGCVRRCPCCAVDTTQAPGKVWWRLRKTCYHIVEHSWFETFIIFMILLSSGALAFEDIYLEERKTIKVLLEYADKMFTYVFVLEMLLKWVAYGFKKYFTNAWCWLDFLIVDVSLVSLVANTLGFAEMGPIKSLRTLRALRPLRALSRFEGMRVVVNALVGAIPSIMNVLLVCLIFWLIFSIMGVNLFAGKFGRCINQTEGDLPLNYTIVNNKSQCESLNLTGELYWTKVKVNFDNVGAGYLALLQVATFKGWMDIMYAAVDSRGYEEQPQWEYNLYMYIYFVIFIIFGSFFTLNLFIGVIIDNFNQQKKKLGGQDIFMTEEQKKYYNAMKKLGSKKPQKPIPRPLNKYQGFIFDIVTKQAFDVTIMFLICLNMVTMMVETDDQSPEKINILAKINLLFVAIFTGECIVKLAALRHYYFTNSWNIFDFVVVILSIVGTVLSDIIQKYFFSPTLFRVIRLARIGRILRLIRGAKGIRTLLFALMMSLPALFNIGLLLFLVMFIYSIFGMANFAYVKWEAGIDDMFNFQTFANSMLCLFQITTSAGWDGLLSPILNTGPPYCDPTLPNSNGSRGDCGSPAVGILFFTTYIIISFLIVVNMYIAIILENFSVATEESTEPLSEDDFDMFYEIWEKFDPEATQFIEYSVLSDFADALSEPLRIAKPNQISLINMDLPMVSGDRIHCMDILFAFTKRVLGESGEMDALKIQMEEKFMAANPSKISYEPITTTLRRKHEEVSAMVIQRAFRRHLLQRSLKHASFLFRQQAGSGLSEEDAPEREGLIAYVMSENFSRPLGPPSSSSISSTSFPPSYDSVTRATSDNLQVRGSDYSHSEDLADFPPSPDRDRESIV

For `CCc1cn2cccc(OCCCc3ccc(Cl)cc3Cl)c2n1` [Compound 4, 8-[3-(2,4-DICHLOROPHENYL)PROPOXY]-2-ETHYLIMIDAZO[1,2-α]PYRIDINE MONOHYDROCHLORIDE], the pIC50 is 7.70 against HERG, 6.00 against hH1 Na+ current, 6.10 against Kv4.2 and 7.00 at Kv1.5.
In the same order, the values of `Cc1cn2cccc(OCC3(c4ccccc4)CC3)c2n1` [Compound 13, 2-METHYL-8-[(1-PHENYL-CYCLOPROPYL)METHOXY]IMIDAZO[1,2-α]PYRIDINE MONOHYDROCHLORIDE] are 6.40, 5.10, 5.52 and 6.15.
In the same order, the values of `Cc1cn2cccc(OCc3ccccc3C(F)(F)F)c2n1` [Compound 7, 2-METHYL-8-[2-(TRIFLUOROMETHYL)BENZYLOXY]IMIDAZO[1,2-α]PYRIDINE MONOHYDROCHLORIDE] are 6.10, 4.82, 5.00 and 5.30.
Regarding `Cc1cn2cccc(OCCCc3ccccc3)c2n1` [Compound 2, 2-METHYL-8-[3-PHENYLPROPOXY]IMIDAZO[1,2-α]PYRIDINE MONOHYDROCHLORIDE], the pIC50 was 7.22 against HERG, 4.47 at hH1 Na+ current, 5.15 against Kv4.2 and 5.40 against Kv1.5. For the same compound, the “D25 QT (dose required to produce a 25% increase in Q-T interval)” value with Sprague Dawley rats (indicates cardiac potassium channel blockade) is 16 µmol/kg. In addition, the “D25 PR (dose required to produce a 25% increase in P-R interval)” value with Sprague Dawley rats (indicates cardiac sodium channel blockade) amounted to 24 µmol/kg.
For the compound `Cc1cn2cccc(OCc3ccc(Cl)cc3Cl)c2n1` [Compound 8, 8-[2,4-DICHLOROBENZYLOXY]-2-METHYLIMIDAZO[1,2-α]PYRIDINE MONOHYDROCHLORIDE], the pIC50 on HERG was 6.40; against hH1 Na+ current, 2.92; against Kv4.2 it was 4.96; against Kv1.5, 6.10.
In the same order, the values of `Cc1cn2cccc(OCCC(c3ccccc3)c3ccccc3)c2n1` [Compound 12, 8-[3,3-DIPHENYL-1-PROPOXY]-2-METHYLIMIDAZO[1,2-α]PYRIDINE MONOHYDROCHLORIDE] are 8.40, 5.52, 6.00 and 6.22.
In the same order, the values of `FC(F)(F)c1cn2cccc(OCCCc3ccc(Cl)cc3Cl)c2n1` [Compound 15, 8-[3-(2,4-DICHLOROPHENYL)PROPOXY]-2-(TRIFLUOROMETHYL)IMIDAZO[1,2-α]PYRIDINE MONOHYDROCHLORIDE] are 6.00, 5.10, 6.22 and 7.00.
The matching figures for `Cc1cn2cccc(OCCCCCc3ccccc3)c2n1` [Compound 10, 2-METHYL-8-[5-PHENYL-1-PENTOXY]IMIDAZO[1,2-α]PYRIDINE MONOHYDROCHLORIDE]: 7.00, 4.92, 6.00 and 6.10.
In the case of `Cc1cn2cccc(OCCCC3CCCCC3)c2n1` [Compound 9, 8-[(3-CYCLOHEXYL)PROPOXY]-2-METHYLIMIDAZO[1,2-α]PYRIDINE MONOHYDROCHLORIDE], the pIC50 against HERG was 7.30; on hH1 Na+ current, 4.85; on Kv4.2, 5.52; on Kv1.5, 6.00.
For the compound `Clc1ccc(CCCOc2cccn3cc(-c4ccccc4)nc23)c(Cl)c1` [Compound 5, 8-[3-(2,4-DICHLOROPHENYL)PROPOXY]-2-PHENYLIMIDAZO[1,2-α]PYRIDINE MONOHYDROCHLORIDE], the pIC50 on HERG is 6.05; against hH1 Na+ current it was 3.62; at Kv4.2, 4.15; against Kv1.5 it was 3.77.
In the same order, the values of `Cc1cn2cccc(OCCCc3c(Cl)cccc3Cl)c2n1` [Compound 6, 8-[3-(2,6-DICHLOROPHENYL)PROPOXY]-2-Methylimidazo[1,2-α]PYRIDINE MONOHYDROCHLORIDE] are 6.52, 6.52, 6.05 and 6.10.
`Cc1cn2cccc(OCCCOCc3ccccc3)c2n1` [Compound 11, 8-[3-BENZYLOXY-1-PROPOXY]-2-METHYLIMIDAZO[1,2-α]PYRIDINE MONOHYDROCHLORIDE]: the pIC50 at HERG is 7.10; against hH1 Na+ current, 3.82; against Kv4.2 it was 4.85; against Kv1.5 it was 4.96.
